# In patent US6737383B1, “Herbicidal oxadiazolidines” (priority 1999, dated 2004):
# How the values were obtained:
# rice = assay: Test B flood test rice; type: in vivo, Oryza sativa
# How it was run: (§1)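 Plants were grown to the 2-leaf stage before treatment with test chemical, then held in a greenhouse for twelve to sixteen days. Injury was visually rated against untreated controls on a 0–10 scale, where 0 is no effect and 10 is complete control.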
# blackgrass = assay: Test B pre/postemergence blackgrass; type: in vivo, Alopecurus myosuroides
# How it was run: (§2)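 Response is a visual 0-to-10 score relative to untreated plants, where 0 means no effect and 10 means complete control, taken twelve to sixteen days after application. Treatments went onto soil at planting and onto foliage of 1- to 4-leaf plants, using a surfactant-containing non-phytotoxic solvent.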
# soybean = assay: Test B pre/postemergence soybean; type: in vivo, Glycine max
# How it was run: as §2
# pigweed = assay: Test B pre/postemergence pigweed; type: in vivo, Amaranthus retroflexus
# How it was run: as §2
# smallflower flatsedge = assay: Test B flood test smallflower flatsedge; type: in vivo, Cyperus difformis
# How it was run: as §1
# wheat = assay: Test B pre/postemergence wheat; type: in vivo, Triticum aestivum; details: for Plant response rating, Wheat: Rate 250 g/ha
# How it was run: as §2
# crabgrass = assay: Test B pre/postemergence crabgrass; type: in vivo, Digitaria sanguinalis
# How it was run: as §2
# duck salad = assay: Test B flood test duck salad; type: in vivo, Heteranthera limosa
# How it was run: as §1
# cocklebur = assay: Test B pre/postemergence cocklebur; type: in vivo, Xanthium strumarium
# How it was run: as §2
# sugar beet = assay: Test B pre/postemergence sugar beet; type: in vivo, Beta vulgaris; details: for Plant response rating, Sugarbeets: Rate 250 g/ha
# How it was run: as §2
# giant foxtail = assay: Test B pre/postemergence giant foxtail; type: in vivo, Setaria faberii
# How it was run: as §2
# purple nutsedge = assay: Test B pre/postemergence purple nutsedge; type: in vivo, Cyperus rotundus
# How it was run: as §2
# velvetleaf = assay: Test B pre/postemergence velvetleaf; type: in vivo, Abutilon theophrasti; details: for Plant response rating, Velvetleaf: Rate 250 g/ha
# How it was run: as §2
# corn = assay: Test B pre/postemergence corn; type: in vivo, Zea mays
# How it was run: as §2
# morningglory = assay: Test B pre/postemergence morningglory; type: in vivo, Ipomoea hederacea
# How it was run: as §2
# rape = assay: Test B pre/postemergence rape; type: in vivo, Brassica napus
# How it was run: as §2
# [1] = Postemergence (flood test species), Rate 125 g/ha, scale of 0 to 10 where 0 is no effect and 10 is complete control
# [2] = Postemergence, Rate 62 g/ha, scale 0 to 10, 0 is no effect, 10 is complete control
# [3] = Rate 250 g/ha, Postemergence (flood test), scale 0 to 10, 0 is no effect, 10 is complete control
# [4] = Rate 500 g/ha, listed under Postemergence (flood test species), scale 0 to 10, 0 no effect, 10 complete control
# [5] = Postemergence, Rate 125 g/ha, scale of 0 to 10 where 0 is no effect and 10 is complete control
# [6] = Postemergence, Rate 250 g/ha, scale 0 to 10, 0 no effect, 10 complete control
# [7] = Preemergence, Rate 62 g/ha, scale 0 to 10 (0 no effect, 10 complete control)
# [8] = Preemergence, Rate 125 g/ha, scale 0 to 10 (0 no effect, 10 complete control)
# [9] = Preemergence, Rate 250 g/ha, scale of 0 to 10 where 0 is no effect and 10 is complete control
# [10] = Preemergence, Rate 500 g/ha, scale 0 (no effect) to 10 (complete control)
# [11] = Rate 500 g/ha, Postemergence, scale 0 to 10, 0 no effect, 10 complete control
# [12] = Preemergence, Rate 125 g/ha, 0 is no effect, 10 is complete control
# [13] = Preemergence, scale of 0 to 10 where 0 is no effect and 10 is complete control
# [14] = Postemergence, scale 0 to 10, 0 is no effect, 10 is complete control
structure (smiles),measurement,setting,value
CC(C)N(C(=O)n1oc(=O)n(-c2cnn(C)c2Cl)c1=O)c1ccc(F)cc1 [Compound 97],Rice plant response rating,rice; [1],0
same,Rice plant response rating,rice; [2],0
same,"Plant response rating, Rice",rice; [3],0
same,Rice plant response rating,rice; [4],3
same,Blackgrass plant response rating,blackgrass; [2],0
same,Blackgrass plant response rating,blackgrass; [5],0
same,Blackgrass plant response rating,blackgrass; [6],3
same,Blackgrass plant response rating,blackgrass; [7],0
same,"Plant response rating, Blackgrass",blackgrass; [8],1
same,"Plant response rating, Blackgrass",blackgrass; [9],1
same,Blackgrass plant response rating,blackgrass; [10],3
same,Blackgrass plant response rating,blackgrass; [11],5
same,Soybean plant response rating,soybean; [2],0
same,Soybean plant response rating,soybean; [5],0
same,Soybean plant response rating,soybean; [7],0
same,"Plant response rating, Soybean",soybean; [8],0
same,"Plant response rating, Soybean",soybean; [9],0
same,Soybean plant response rating,soybean; [10],2
same,"Plant response rating, Soybean","soybean; Rate 250 g/ha, Postemergence, scale 0 to 10, 0 is no effect, 10 is complete control",1
same,Soybean plant response rating,soybean; [11],2
same,Redroot pigweed plant response rating,pigweed; [2],0
same,Redroot pigweed plant response rating,pigweed; [5],0
same,Redroot pigweed plant response rating,pigweed; [7],0
same,"Plant response rating, Redroot pigweed",pigweed; [9],4
same,Redroot pigweed plant response rating,pigweed; [10],10
same,Redroot pigweed plant response rating,pigweed; [11],5
same,S. Flatsedge plant response rating,smallflower flatsedge; [1],0
same,S. Flatsedge plant response rating,smallflower flatsedge; [2],0
same,"Plant response rating, S. Flatsedge",smallflower flatsedge; [3],0
same,S. Flatsedge plant response rating,smallflower flatsedge; [4],2
same,Wheat plant response rating,wheat; [2],0
same,Wheat plant response rating,wheat; [5],0
same,Wheat plant response rating,wheat; [7],0
same,Wheat plant response rating (0 to 10 scale),wheat; [12],0
same,"Plant response rating, Wheat",wheat; [13],0
same,Wheat plant response rating,wheat; [10],2
same,"Plant response rating, Wheat",wheat; [14],0
same,Wheat plant response rating,wheat; [11],0
same,Crabgrass plant response rating,crabgrass; [2],0
same,Crabgrass plant response rating,crabgrass; [5],2
same,Crabgrass plant response rating,crabgrass; [6],4
same,Crabgrass plant response rating,crabgrass; [7],0
same,"Plant response rating, Crabgrass",crabgrass; [8],0
same,"Plant response rating, Crabgrass",crabgrass; [9],1
same,Crabgrass plant response rating,crabgrass; [10],4
same,Ducksalad plant response rating,duck salad; [1],0
same,Ducksalad plant response rating,duck salad; [2],0
same,Ducksalad plant response rating,duck salad; [4],2
same,Ducksalad plant response rating,"duck salad; flood test, listed under Postemergence, Rate 250 g/ha, scale 0 to 10, 0 no effect, 10 complete control",2
same,Cocklebur plant response rating,cocklebur; [2],0
same,Cocklebur plant response rating,cocklebur; [5],0
same,Cocklebur plant response rating,cocklebur; [6],1
same,Cocklebur plant response rating,cocklebur; [7],0
same,"Plant response rating, Cocklebur",cocklebur; [8],0
same,"Plant response rating, Cocklebur",cocklebur; [9],0
same,Cocklebur plant response rating,cocklebur; [10],0
same,Cocklebur plant response rating,cocklebur; [11],1
same,Sugarbeets plant response rating,sugar beet; [2],0
same,Sugarbeets plant response rating,sugar beet; [5],0
same,Sugarbeets plant response rating,sugar beet; [7],0
same,Sugarbeets plant response rating (0 to 10 scale),sugar beet; [12],3
same,"Plant response rating, Sugarbeets",sugar beet; [13],5
same,Sugarbeets plant response rating,sugar beet; [10],9
same,"Plant response rating, Sugarbeets",sugar beet; [14],0
same,Sugarbeets plant response rating,sugar beet; [11],0
same,Giant foxtail plant response rating,giant foxtail; [2],0
same,Giant foxtail plant response rating,giant foxtail; [5],0
same,Giant foxtail plant response rating,giant foxtail; [6],3
same,Giant foxtail plant response rating,giant foxtail; [7],0
same,"Plant response rating, Giant foxtail",giant foxtail; [8],3
same,"Plant response rating, Giant foxtail",giant foxtail; [9],4
same,Giant foxtail plant response rating,giant foxtail; [10],8
same,Giant foxtail plant response rating,giant foxtail; [11],4
same,Nutsedge plant response rating,purple nutsedge; [2],0
same,Nutsedge plant response rating,purple nutsedge; [5],0
same,Nutsedge plant response rating,purple nutsedge; [6],0
same,Nutsedge plant response rating,purple nutsedge; [7],0
same,"Plant response rating, Nutsedge",purple nutsedge; [8],0
same,"Plant response rating, Nutsedge",purple nutsedge; [9],0
same,Nutsedge plant response rating,purple nutsedge; [10],0
same,Nutsedge plant response rating,purple nutsedge; [11],0
same,Velvetleaf plant response rating,velvetleaf; [2],0
same,Velvetleaf plant response rating,velvetleaf; [5],0
same,Velvetleaf plant response rating,velvetleaf; [7],0
same,Velvetleaf plant response rating (0 to 10 scale),velvetleaf; [12],0
same,"Plant response rating, Velvetleaf",velvetleaf; [13],0
same,Velvetleaf plant response rating,velvetleaf; [10],0
same,"Plant response rating, Velvetleaf",velvetleaf; [14],2
same,Velvetleaf plant response rating,velvetleaf; [11],3
same,Corn plant response rating,corn; [2],0
same,Corn plant response rating,corn; [5],0
same,Corn plant response rating,corn; [6],0
same,Corn plant response rating,corn; [7],0
same,"Plant response rating, Corn",corn; [8],0
same,"Plant response rating, Corn",corn; [9],0
same,Corn plant response rating,corn; [10],0
same,Corn plant response rating,corn; [11],0
same,Morningglory plant response rating,morningglory; [2],1
same,Morningglory plant response rating,morningglory; [5],1
same,Morningglory plant response rating,morningglory; [6],3
same,Morningglory plant response rating,morningglory; [7],0
same,"Plant response rating, Morningglory",morningglory; [8],0
same,"Plant response rating, Morningglory",morningglory; [9],0
same,Morningglory plant response rating,morningglory; [10],0
same,Morningglory plant response rating,morningglory; [11],3
same,Rape plant response rating,rape; [2],0
same,Rape plant response rating,rape; [5],0
same,Rape plant response rating,rape; [6],0
same,Rape plant response rating,rape; [7],0
same,"Plant response rating, Rape",rape; [8],0
same,"Plant response rating, Rape",rape; [9],5
same,Rape plant response rating,rape; [10],6
same,Rape plant response rating,rape; [11],3
